Assay results as given in patent publication US8680108B2, “Substituted fused aryl and heteroaryl derivatives as PI3K inhibitors” (Incyte Corporation, priority 2009, dated 2014).
Structures can show the parent of a compound that is named as a salt. Where two headings read alike, the source gives them in different places.

Biological target: T1, PI3Kδ (p110δ/p85α) (Homo sapiens, UniProt O00329)
T1 construct: purchased Millipore (Bedford, Mass.)
Test: PI3Kδ scintillation proximity assay
Format: biochemical
Excerpt: Materials: [γ-^33P]ATP (10 mCi/mL) was purchased from Perkin-Elmer (Waltham, Mass.). Lipid kinase substrate, D-myo-Phosphatidylinositol 4,5-bisphosphate (PtdIns(4,5)P2)D (+)-sn-1,2-di-O-octanoylglyceryl, 3-O-phospho linked (PIP2), CAS 204858-53-7, was purchased from Echelon Biosciences (Salt Lake City, Utah). PI3Kδ (p110δ/p85α) was purchased from Millipore (Bedford, Mass.). ATP, MgCl2, DTT, EDTA, MOPS and CHAPS were purchased from Sigma-Aldrich (St. Louis, Mo.). Wheat Germ Agglutinin (WGA) YSi SPA Scintillation Beads was purchased from GE healthcare life sciences (Piscataway, N.J.).
Assay: The kinase reaction was conducted in polystyrene 384-well matrix white plate from Thermo Fisher Scientific in a final volume of 25 μL. Inhibitors were first diluted serially in DMSO and added to the plate wells before the addition of other reaction components. The final concentration of DMSO in the assay was 0.5%. The PI3K assays were carried out at room temperature in 20 mM MOPS, pH 6.7, 10 mM MgCl2, 5 mM DTT and CHAPS 0.03%. Reactions were initiated by the addition of ATP, the final reaction mixture consisted of 20 μM PIP2, 20 μM ATP, 0.2 μCi [γ-^33P] ATP, 4 nM PI3Kδ. Reactions were incubated for 210 minutes and terminated by the addition of 40 μL SPA beads suspended in quench buffer: 150 mM potassium phosphate pH 8.0, 20% glycerol. 25 mM EDTA, 400 μM ATP. The final concentration of SPA beads is 1.0 mg/mL. After the plate sealing, plates were shaken overnight at room temperature and centrifuged at 1800 rpm for 10 minutes, the radioactivity of the product was determined by scintillation counting on Topcount (Perkin-Elmer). IC50 determination was performed by fitting the curve of percent control activity versus the log of the inhibitor concentration using the GraphPad Prism® 3.0 software.

T1 sequence (O00329 whole entry): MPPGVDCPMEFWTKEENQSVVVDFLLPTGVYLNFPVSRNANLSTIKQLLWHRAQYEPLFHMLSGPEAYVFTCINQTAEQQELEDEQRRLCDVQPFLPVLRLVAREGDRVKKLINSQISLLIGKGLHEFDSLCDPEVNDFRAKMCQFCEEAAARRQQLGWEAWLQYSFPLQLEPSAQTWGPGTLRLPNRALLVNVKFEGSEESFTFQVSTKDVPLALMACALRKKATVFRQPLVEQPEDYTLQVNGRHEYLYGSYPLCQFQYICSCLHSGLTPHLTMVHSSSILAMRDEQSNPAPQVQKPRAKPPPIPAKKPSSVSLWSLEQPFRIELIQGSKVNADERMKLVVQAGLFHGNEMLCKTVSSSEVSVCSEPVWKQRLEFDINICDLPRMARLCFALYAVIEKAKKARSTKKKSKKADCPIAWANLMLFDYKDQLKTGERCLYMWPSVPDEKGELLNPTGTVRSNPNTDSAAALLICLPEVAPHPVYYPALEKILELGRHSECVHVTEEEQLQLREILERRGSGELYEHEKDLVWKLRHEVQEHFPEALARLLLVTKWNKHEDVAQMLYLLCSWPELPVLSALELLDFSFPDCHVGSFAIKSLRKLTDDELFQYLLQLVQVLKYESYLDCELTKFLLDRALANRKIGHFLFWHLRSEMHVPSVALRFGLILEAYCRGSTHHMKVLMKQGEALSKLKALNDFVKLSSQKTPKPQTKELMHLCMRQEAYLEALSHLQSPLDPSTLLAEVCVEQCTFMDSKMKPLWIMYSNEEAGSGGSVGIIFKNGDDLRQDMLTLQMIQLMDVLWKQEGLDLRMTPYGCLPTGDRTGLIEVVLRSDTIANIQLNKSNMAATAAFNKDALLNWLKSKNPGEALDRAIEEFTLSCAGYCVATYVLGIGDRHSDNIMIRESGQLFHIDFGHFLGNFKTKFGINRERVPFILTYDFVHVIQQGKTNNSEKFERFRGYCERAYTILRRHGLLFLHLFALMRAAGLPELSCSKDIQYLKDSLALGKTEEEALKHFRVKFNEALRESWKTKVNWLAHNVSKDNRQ
T1 sequence (P27986 whole entry partner): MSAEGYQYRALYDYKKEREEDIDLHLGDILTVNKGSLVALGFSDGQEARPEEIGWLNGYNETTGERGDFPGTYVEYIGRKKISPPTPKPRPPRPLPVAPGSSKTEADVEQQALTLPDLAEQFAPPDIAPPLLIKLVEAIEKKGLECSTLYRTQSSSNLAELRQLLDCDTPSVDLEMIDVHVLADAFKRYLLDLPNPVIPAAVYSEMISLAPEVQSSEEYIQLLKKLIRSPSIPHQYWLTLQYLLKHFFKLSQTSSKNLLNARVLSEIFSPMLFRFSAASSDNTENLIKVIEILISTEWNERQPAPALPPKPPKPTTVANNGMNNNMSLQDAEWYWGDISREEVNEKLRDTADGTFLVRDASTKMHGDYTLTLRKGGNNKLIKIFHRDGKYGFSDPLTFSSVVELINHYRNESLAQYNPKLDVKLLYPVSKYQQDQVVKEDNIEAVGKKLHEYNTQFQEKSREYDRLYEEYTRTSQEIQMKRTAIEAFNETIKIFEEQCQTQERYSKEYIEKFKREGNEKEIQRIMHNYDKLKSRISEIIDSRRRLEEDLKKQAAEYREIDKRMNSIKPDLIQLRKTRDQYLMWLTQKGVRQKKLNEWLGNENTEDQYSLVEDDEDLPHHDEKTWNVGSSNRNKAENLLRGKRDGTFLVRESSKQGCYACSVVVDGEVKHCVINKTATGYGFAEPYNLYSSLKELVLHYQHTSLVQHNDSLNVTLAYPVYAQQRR

IC50	IC50 (separated isomer, 1st peak)	IC50 (separated isomer, 2nd peak)	Compound
> 1000 nM	–	–	CCC(Nc1ncnc2[nH]cnc12)c1cc(Cl)c2ccnnc2c1-c1cccc(F)c1 (single isomer, unassigned) [Example 32, N-{1-[5-chloro-8-(3-fluorophenyl)cinnolin-7-yl]propyl}-9H-purin-6-amine]
< 50 nM	–	–	CCC(Nc1ncnc2[nH]cnc12)c1cc(Cl)c2ccnnc2c1-c1cccc(F)c1 (single isomer, unassigned) [Example 33, N-{1-[5-chloro-8-(3-fluorophenyl)cinnolin-7-yl]propyl}-9H-purin-6-amine]
50 to 100 nM	–	–	CC(Nc1ncnc2[nH]cnc12)c1cc(Cl)c2ccnnc2c1-c1cncc(F)c1 (single isomer, unassigned) [Example 34, N-{1-[5-chloro-8-(5-fluoropyridin-3-yl)cinnolin-7-yl]ethyl}-9H-purin-6-amine trifluoroacetate]
> 1000 nM	–	–	CC(Nc1ncnc2[nH]cnc12)c1cc(Cl)c2ccnnc2c1-c1cncc(F)c1 (single isomer, unassigned) [Example 35, N-{1-[5-chloro-8-(5-fluoropyridin-3-yl)cinnolin-7-yl]ethyl}-9H-purin-6-amine trifluoroacetate]
< 50 nM	–	–	Cc1cc(C(C)Nc2ncnc3[nH]cnc23)c(-c2cc(F)cc(F)c2)c2nnccc12 (single isomer, unassigned) [Example 38, N-{1-[8-(3,5-difluorophenyl)-5-methylcinnolin-7-yl]ethyl}-9H-purin-6-amine]
> 1000 nM	–	–	Cc1cc(C(C)Nc2ncnc3[nH]cnc23)c(-c2cc(F)cc(F)c2)c2nnccc12 (single isomer, unassigned) [Example 39, N-{1-[8-(3,5-difluorophenyl)-5-methylcinnolin-7-yl]ethyl}-9H-purin-6-amine]
100 to 250 nM	–	–	CC(Nc1ncnc2[nH]cnc12)c1ccc2ccccc2c1-c1cccc(F)c1 (centres unmarked) [Example 1, N-{1-[1-(3-fluorophenyl)-2-naphthyl]ethyl}-9H-purin-6-amine trifluoroacetate]
> 1000 nM	–	–	Cc1nc2c(-c3cccc(F)c3)c(C(C)Nc3ncnc4[nH]cnc34)ccc2s1 (centres unmarked) [Example 2, N-{1-[4-(3-fluorophenyl)-2-methyl-1,3-benzothiazol-5-yl]ethyl}-9H-purin-6-amine trifluoroacetate]
< 50 nM	–	–	CC(Nc1nc(N)nc2[nH]cnc12)c1ccc2ccccc2c1-c1cncc(F)c1 (centres unmarked) [Example 3, N(6)-{1-[1-(5-fluoropyridin-3-yl)-2-naphthyl]ethyl}-9H-purine-2,6-diamine bis-trifluoroacetate]
–	500 to 1000 nM	500 to 1000 nM	CC(Nc1nc(N)nc2[nH]cnc12)c1ccc2ccccc2c1-c1cccc(F)c1 (centres unmarked) [Example 4, N(6)-{1-[1-(3-fluorophenyl)-2-napthyl]ethyl}-9H-purine-2,6-diamine]
< 50 nM	–	–	CC(Nc1ncnc2[nH]cnc12)c1ccc2ccccc2c1-c1cncc(F)c1 (centres unmarked) [Example 5, N-{1-[1-(5-fluoropyridin-3-yl)-2-napthyl]ethyl}-9H-purin-6-amine bis-trifluoroacetate]
500 to 1000 nM	–	–	CC(Nc1ncnc2[nH]cnc12)c1ccc2cccnc2c1-c1cc(F)cc(F)c1 (centres unmarked) [Example 6, N-{1-[8-(3,5-difluorophenyl)quinolin-7-yl]ethyl}-9H-purin-6-amine bis-trifluoroacetate]
–	> 1000 nM	500 to 1000 nM	CC(Nc1ncnc2[nH]cnc12)c1ccc2cccnc2c1-c1ccccc1F (centres unmarked) [Example 7, N-{1-[8-(2-fluorophenyl)quinolin-7-yl]ethyl}-9H-purin-6-amine bis-trifluoroacetate]
250 to 500 nM	–	–	CC(Nc1ncnc2[nH]cnc12)c1ccc2cccnc2c1-c1cccc(F)c1 (centres unmarked) [Example 8, N-{1-[8-(3-fluorophenyl)quinolin-7-yl]ethyl}-9H-purin-6-amine bis-trifluoroacetate]
500 to 1000 nM	–	–	CC(Nc1ncnc2[nH]cnc12)c1ccc2cccnc2c1-c1cncc(F)c1 (centres unmarked) [Example 9, N-{1-[8-(5-fluoropyridin-3-yl)quinolin-7-yl]ethyl}-9H-purin-6-amine tris-trifluoroacetate]
–	100 to 250 nM	< 50 nM	CC(Nc1ncnc2[nH]cnc12)c1cc(Cl)c2cccnc2c1-c1ccccc1F (centres unmarked) [Example 10, N-{1-[5-chloro-8-(2-fluorophenyl)quinolin-7-yl]ethyl}-9H-purin-6-amine bis-trifluoroacetate]
< 50 nM	–	–	COCCN1CCN(c2c(C(C)Nc3ncnc4[nH]cnc34)cc(Cl)c3cccnc23)CC1 (centres unmarked) [Example 11, N-(1-{5-chloro-8-[4-(2-methoxyethyl)piperazin-1-yl]quinolin-7-yl]ethyl)-9H-purin-6-amine tris-trifluoroacetate]

IC50	IC50 (separated isomer, 1st peak)	IC50 (separated isomer, 2nd peak)	Compound
–	> 1000 nM	< 50 nM	CC(Nc1ncnc2[nH]cnc12)c1cc(Cl)c2cccnc2c1N1CC[C@@H](O)C1 (stereo partly drawn) [Example 12, (3R)-1-{5-chloro-7-[1-(9H-purin-6-ylamino)ethyl]quinolin-8-yl}pyrrolidin-3-ol bis-trifluoroacetate]
< 50 nM	–	–	CC(=O)N[C@H]1CCN(c2c(C(C)Nc3ncnc4[nH]cnc34)cc(Cl)c3cccnc23)C1 (stereo partly drawn) [Example 13, N-((3S)-1-{5-chloro-7-[1-(9H-purin-6-ylamino)ethyl]quinolin-8-yl}pyrrolidin-3-yl}acetamide bis-trifluoroacetate]
< 50 nM	–	–	CC(Nc1ncnc2[nH]cnc12)c1cc(Cl)c2cccnc2c1-c1cccc(F)c1 (centres unmarked) [Example 15, N-{1-[5-chloro-8-(3-fluorophenyl)quinolin-7-yl]ethyl}-9H-purin-6-amine bis-trifluoroacetate]
100 to 250 nM	–	–	CC(Nc1ncnc2[nH]cnc12)c1cc(F)c2ccnnc2c1-c1cccc(F)c1 (centres unmarked) [Example 19, N-{1-[5-Fluoro-8-(3-fluorophenyl)cinnolin-7-yl]ethyl}-9H-purin-6-amine]
500 to 1000 nM	–	–	Fc1cccc(-c2c(CNc3ncnc4[nH]cnc34)cc(Cl)c3ccnnc23)c1 [Example 31, N-{[5-Chloro-8-(3-fluorophenyl)cinnolin-7-yl]methyl}-9H-purin-6-amine trifluoroacetate]
> 1000 nM	–	–	CNC(=O)c1cc(F)cc(-c2c(C(C)Nc3ncnc4[nH]cnc34)cc(Cl)c3ccnnc23)c1 (centres unmarked) [Example 40, 3-{5-Chloro-7-[1-(9H-purin-6-ylamino)ethyl]cinnolin-8-yl}-5-fluoro-N-methylbenzamide]
500 to 1000 nM	–	–	COc1ccc(-c2c(C(C)Nc3ncnc4[nH]cnc34)cc(Cl)c3ccnnc23)cc1F (centres unmarked) [Example 41, N-{1-[5-Chloro-8-(3-fluoro-4-methoxyphenyl)cinnolin-7-yl]ethyl}-9H-purin-6-amine]
500 to 1000 nM	–	–	CC(Nc1ncnc2[nH]cnc12)c1cc(Cl)c2ccnnc2c1-c1ccnc(F)c1 (centres unmarked) [Example 42, N-{1-[5-Chloro-8-(2-fluoropyridin-4-yl)cinnolin-7-yl]ethyl}-9H-purin-6-amine]
< 50 nM	–	–	CC(Nc1ncnc2[nH]cnc12)c1cc(Cl)c2cccnc2c1N1CCC(O)CC1 (centres unmarked) [Example 43, 1-{5-Chloro-7-[1-(9H-purin-6-ylamino)ethyl]quinolin-8-yl}piperidin-4-ol]
100 to 250 nM	–	–	Cc1nc(C(C)Nc2ncnc3[nH]cnc23)c(-c2cccc(F)c2)c2ccccc12 (centres unmarked) [Example 44, N-{1-[4-(3-Fluorophenyl)-1-methylisoquinolin-3-yl]ethyl}-9H-purin-6-amine]
< 50 nM	–	–	CC(Nc1ncnc2[nH]cnc12)c1cc(Cl)c2ccccc2c1N1CCC(O)CC1 (centres unmarked) [Example 45, 1-{4-Chloro-2-[1-(9H-purin-6-ylamino)ethyl]-1-naphthyl}piperidin-4-ol]
100 to 250 nM	–	–	CC(Nc1ncnc2[nH]cnc12)c1cc(Cl)c2ccccc2c1-c1cccc(F)c1 (centres unmarked) [Example 46, N-{1-[4-Chloro-1-(3-fluorophenyl)-2-naphthyl]ethyl}-9H-purin-6-amine]
500 to 1000 nM	–	–	CC(Nc1ncnc2[nH]cnc12)c1cc(Cl)c2cccnc2c1N1CCC(F)(F)CC1 (centres unmarked) [Example 47, N-{1-[5-Chloro-8-(4,4-difluoropiperidin-1-yl)quinolin-7-yl]ethyl}-9H-purin-6-amine]
> 1000 nM	–	–	CC(Nc1ncnc2[nH]cnc12)c1cc(Cl)c2cccnc2c1N1CCC(O)(c2ccccc2)CC1 (centres unmarked) [Example 49, 1-{5-Chloro-7-[1-(9H-purin-6-ylamino)ethyl]quinolin-8-yl}-4-phenylpiperidin-4-ol]
100 to 250 nM	–	–	Cc1cc(C(C)Nc2ncnc3[nH]cnc23)c(-c2cccc(F)c2)c2ncccc12 (centres unmarked) [Example 50, N-{1-[8-(3-Fluorophenyl)-5-methylquinolin-7-yl]ethyl}-9H-purin-6-amine]
50 to 100 nM	–	–	CCc1cc(C(C)Nc2ncnc3[nH]cnc23)c(-c2cccc(F)c2)c2ncccc12 (centres unmarked) [Example 51, N-{1-[5-Ethyl-8-(3-fluorophenyl)quinolin-7-yl]ethyl}-9H-purin-6-amine bis(trifluoroacetate)]
50 to 100 nM	–	–	CC(Nc1ncnc2[nH]cnc12)c1cc(C#N)c2cccnc2c1-c1cccc(F)c1 (centres unmarked) [Example 52, 8-(3-fluorophenyl)-7-[1-(9H-purin-6-ylamino)ethyl]quinoline-5-carbonitrile]
